# Laboratory results: patent US12377152B2, “Compounds for degrading alpha-synuclein aggregates and uses thereof” (APRINOIA THERAPEUTICS LIMITED, priority 2019, dated 2025)
# Experiments:
# α-synuclein aggregates = α-synuclein aggregates (Homo sapiens (Human), UniProt P37840); test: ReNcell VM α-synuclein aggregation assay; assay type: cell-based
# [1] = In vivo pharmacokinetic study; conditions: mice; for AUC(0-t) / Cmax / Tmax / half-life: mouse
# Procedure: To determine whether the compounds of the present disclosure are capable of crossing the blood brain barrier (BBB), example compound 132168 was administered to mice in a pharmacokinetic study (10 and 25 mg/kg, intravenous).
# Animal Husbandry: Mice were housed at animal room environment with ventilation 15 times/hour, lighting 12 hours/day, temperature 20° C. to 24° C. and humidity 40% to 70%. The study rooms were disinfected and cleaned prior to the start of the study and the operation area was cleaned after each dosing or sampling during the study conduct. All animals had free access to food and water during the study. The animals had access to Certified Rodent Diet and water ad libitum. The nutritional composition and levels of contaminants of the diet and impurities and contaminants of the water were monitored by third organization. The health status of the animals was evaluated in accordance with accepted animal husbandry procedures and deemed suitable for experimental use.
# Sample Collection & Processing: Approximately 110 μL of whole blood were collected from all animals via facial or cardiac puncture under anesthesia with Isoflurane into test tubes containing potassium ethylenediaminetetraacetate (K2EDTA) at 0.25, 0.5, 1, 2, 4, 8 and 24 hr post dose. Brian samples were collected at 0.25, 0.5, 1, 2, 4, 8 and 24 hours post dose. A perfusion with pre-cold saline will be conducted via cardiac puncture before brain collection. Blood samples were centrifuged at 2000 g at 4° C. for 5 minutes to obtain plasma samples by transferring the supernatants into new tubes. All plasma and brain samples were stored at approximately −70° C. until analysis.
# Bioanalytical Method Development: The concentrations of compound in plasma and brain samples were determined using a liquid chromatography with tandem mass spectrometry (LC-MS/MS) based method.
# α-synuclein = α-synuclein (Homo sapiens (Human), UniProt P37840); test: In vivo assay for degrading α-synuclein aggregates (transgenic Line61 mice); conditions: 25 mpk, once intravenous, hemibrain, WES System
# Procedure: Male transgenic Line61 mice at age of three-month-old were used for the study. Mice were treated once via intravenous injection with the compound 132168 (25 mpk). Plasma and brain samples were collected at 0.25, 0.5, 1, 2, 4, 8 and 24 h post treatment. Blood samples were collected via cardiac puncture into MiniCollect® 0.5 mL K2EDTA (Potassium ethylenediaminetetraacetic acid) tubes. The blood samples were centrifuged at 3000×g for 10 minutes at room temperature (22° C.). Plasma was transferred to a pre-labeled 1.5 ml LoBind Eppendorf tube (2 aliquot, each ˜[…]), frozen on dry ice and stored at −80° C. until analysis. For brain samples, a perfusion with 0.9% saline was performed before collection. Brain was weighed, hemisected on a cooled surface, weighed and snap frozen. The hemibrain was used for WES System analysis of human α-synuclein in soluble and insoluble fraction. Upon treatment of compound 132168, insoluble α-synuclein fraction decreases 30% compared to DMSO vehicle control, reflecting the reduction of insoluble α-synuclein aggregates.
compound,measurement,setting,value
CN(C)c1ccc(-c2ccc(-c3nc4ccc(NCCCCCOc5ccc6c(c5)CN(C5CCC(=O)NC5=O)C6=O)cc4s3)c(C(F)(F)F)c2)cn1 (stereo not drawn) [Compound 132168],inhibition of MJFR14 immunoreactivity,"α-synuclein aggregates; 6-day treatment, immunocytochemical images",clear inhibition
same,DC50,"α-synuclein aggregates; ReNcell VM cells, read-out: Activity (DC50, concentration at which 50% of α-synuclein aggregates has been degraded)",10 to 900 nM
same,blood brain barrier (BBB) penetration,[1]; 10 and 25 mg/kg intravenous,able to penetrate BBB
same,AUC(0-t),"[1]; Brain, 10 mg/kg intravenous",1330 ng·h/mL
same,Cmax,"[1]; Brain, 10 mg/kg intravenous",319 ng/mL
same,Tmax,"[1]; Brain, 10 mg/kg intravenous",0.5 h
same,half-life,"[1]; Brain, 10 mg/kg intravenous",353 min
same,AUC(0-t),"[1]; Brain, 25 mg/kg intravenous",4070 ng·h/mL
same,Cmax,"[1]; Brain, 25 mg/kg intravenous",581 ng/mL
same,Tmax,"[1]; Brain, 25 mg/kg intravenous",4 h
same,AUC(0-t),"[1]; Plasma, 10 mg/kg intravenous",17800 ng·h/mL
same,half-life,"[1]; Plasma, 10 mg/kg intravenous",172 min
same,AUC(0-t),"[1]; Plasma, 25 mg/kg intravenous",48700 ng·h/mL
same,half-life,"[1]; Plasma, 25 mg/kg intravenous",127 min
same,decrease of insoluble α-synuclein fraction compared to DMSO vehicle control,α-synuclein,30%
